MIC and EC50 data for 2 molecules are collected here from ChEMBL document CHEMBL5120782, “Structure and Candidate Biosynthetic Gene Cluster of a Manumycin-Type Metabolite from Salinispora pacifica” (J Nat Prod, 2022).

Test [1] can be described thus: Antibacterial activity against Bacillus oceanisediminis CNY-977 assessed as reduction in microbial growth incubated for 18 hrs by CLSI based method. In kind it is functional. The conditions noted are these: Cytobacillus oceanisediminis.
A further test relates to NCI-H460. The experiment in a line: Cytotoxicity against human NCI-H460 cells assessed as reduction in cell viability incubated for 48 hrs by MTT assay. In kind it is functional, cell-based. The conditions noted are these: NCI-H460, 48 h. A general note: Tetrazolium dyes change colour on reduction, which living cells bring about.

Each structure is given as a SMILES string.

As for `CC(C)=C[C@H](C)C[C@H](C)/C=C(\CO)C(=O)NC1=C[C@](O)(CCC(N)=O)[C@H]2O[C@H]2C1=O`, in test [1], the minimal inhibitory concentration (MIC) (in general, the least concentration at which growth counts as inhibited) came to 50 µM.

As for `CCCC/C=C/C=C/C=C/C=N/NN=O`, the EC50 (in general, the concentration needed to bring the measured effect to its halfway point) with NCI-H460 was found to be 5.5 µM.
